Data set [1] deals with M. tuberculosis H37Rv. Briefly: MIC90 against M. tuberculosis in liquid medium. Type of data set: cell-based, Mycobacterium tuberculosis. As to conditions: Mycobacterium tuberculosis, H37RV, 120 h; liquid medium 7H9-Tw-OADC, aerobic, 5 days; average ± SD of two independent experiments; read-out: MIC (MIC90, minimum concentration required to inhibit growth of M. tuberculosis by 90%).

In data set [2] the test system is HepG2 cells. Briefly: Cytotoxicity against HepG2 cell line (CellTiter-Glo). The class given is cell-based. As to conditions: for IC50: Homo sapiens, 48 h, HepG2, 2 days incubation, read-out: IC50 (concentration required to reduce the viability of HepG2 cells by 50%); for Selectivity index (SI) = IC50/MIC90: HepG2 IC50 / M. tuberculosis MIC90. A general note: Cellular ATP, detected with luciferase, serves as a proxy for viable cell number.

Converted amounts (≈) assume the structure as drawn.

One may read the melting point as the temperature, or range, at which the solid turns liquid. The molecule `c1ccc(-c2cc(NC3CCC3)n3ncnc3n2)cc1` [Compound 35, N-Cyclobutyl-5-phenyl-[1,2,4]triazolo[1,5-a]pyrimidin-7-amine] had a melting point of 193 to 194 °C. In addition, in data set [1], the MIC90 is over 20 µM. The IC50 in data set [2] came to 57 µM.

The molecule `c1ccc(-c2cc(NCCC3CCCCC3)n3ncnc3n2)cc1` [Compound 36, N-(2-Cyclohexylethyl)-5-phenyl-[1,2,4]triazolo[1,5-a]pyrimidin-7-amine] showed a melting point of 168 to 169 °C. Also, the MIC90 in data set [1] worked out at 17 ± 2.1 µM (≈ 5.46 µg/mL). Moreover, in data set [2], the “Selectivity index (SI) = IC50/MIC90” value was over 6 and the IC50 was over 100 µM.

In turn, `COc1ccc(Nc2cc(-c3ccccc3)nc3ncnn23)cc1` [Compound 37, N-(4-Methoxyphenyl)-5-phenyl-[1,2,4]triazolo[1,5-a]pyrimidin-7-amine] returned a melting point of 200 to 202 °C. Further, the MIC90 in data set [1] is over 20 µM. The IC50 in data set [2] turned out to be 49 µM.

In the case of `COc1ccc(CNc2cc(-c3ccccc3)nc3ncnn23)cc1` [Compound 38, N-(4-Methoxybenzyl)-5-phenyl-[1,2,4]triazolo[1,5-a]pyrimidin-7-amine], the melting point was 162 to 163 °C. Besides, the MIC90 in data set [1] was over 20 µM. Besides, the IC50 in data set [2] was found to be 43 µM.

As to `c1ccc(CCNc2cc(-c3ccccc3)nc3ncnn23)cc1` [Compound 39, N-Phenethyl-5-phenyl-[1,2,4]triazolo[1,5-a]pyrimidin-7-amine], the melting point was 164 to 165 °C. The MIC90 in data set [1] is 7.7 ± 0.7 µM (≈ 2.43 µg/mL). For the same molecule, in data set [2], the “Selectivity index (SI) = IC50/MIC90” value is 3.5 and the IC50 turned out to be 27 µM.

In the case of `c1ccc(CCCNc2cc(-c3ccccc3)nc3ncnn23)cc1` [Compound 40, 5-Phenyl-N-(3-phenylpropyl)-[1,2,4]triazolo[1,5-a]pyrimidin-7-amine], the melting point is 143 to 145 °C. In data set [1], the MIC90 was over 20 µM. Further, the IC50 in data set [2] came to 8.7 µM.

As for `c1ccc(-c2cc(NCCc3ccccn3)n3ncnc3n2)cc1` [Compound 41, 5-Phenyl-N-(2-(pyridin-2-yl)ethyl)-[1,2,4]triazolo[1,5-a]pyrimidin-7-amine], the melting point was in the range of 111 to 114 °C. Also, the MIC90 in data set [1] was over 20 µM. Moreover, the IC50 in data set [2] is over 100 µM.

`c1ccc(-c2cc(NCCc3cccnc3)n3ncnc3n2)cc1` [Compound 42, 5-Phenyl-N-(2-(pyridin-3-yl)ethyl)-[1,2,4]triazolo[1,5-a]pyrimidin-7-amine] came in with a melting point of 169 to 171 °C. Moreover, in data set [1], the MIC90 was over 20 µM. The IC50 in data set [2] is over 100 µM.

`c1ccc(-c2cc(NCCc3ccncc3)n3ncnc3n2)cc1` [Compound 43, 5-Phenyl-N-(2-(pyridin-4-yl)ethyl)-[1,2,4]triazolo[1,5-a]pyrimidin-7-amine] displayed a melting point of 231 to 233 °C. Also, the MIC90 in data set [1] was over 20 µM. Moreover, the IC50 in data set [2] is over 100 µM.

The molecule `CCc1ccc(CCNc2cc(-c3ccccc3)nc3ncnn23)cc1` [Compound 45, N-(4-Ethylphenethyl)-5-phenyl-[1,2,4]triazolo[1,5-a]pyrimidin-7-amine] displayed a melting point of 152 to 154 °C. In data set [1], the MIC90 was determined as 0.74 ± 0.1 µM (≈ 0.254 µg/mL). Also, in data set [2], the “Selectivity index (SI) = IC50/MIC90” value is over 138 and the IC50 is over 100 µM.

In turn, `Fc1ccc(CCNc2cc(-c3ccccc3)nc3ncnn23)cc1` [Compound 46, N-(4-Fluorophenethyl)-5-phenyl-[1,2,4]triazolo[1,5-a]pyrimidin-7-amine] returned a melting point of 169 to 170 °C. Moreover, in data set [1], the MIC90 is over 20 µM. Besides, the IC50 in data set [2] turned out to be 50 µM.

As to `FC(F)(F)c1ccc(CCNc2cc(-c3ccccc3)nc3ncnn23)cc1` [Compound 47, 5-Phenyl-N-(4-(trifluoromethyl)phenethyl)-[1,2,4]triazolo[1,5-a]pyrimidin-7-amine], the melting point was 183 to 184 °C. In addition, in data set [1], the MIC90 amounted to 2.7 ± 0.7 µM (≈ 1.04 µg/mL). Further, in data set [2], the “Selectivity index (SI) = IC50/MIC90” value was over 38 and the IC50 was over 100 µM.

The molecule `COc1ccc(CC(=O)Nc2cc(-c3ccccc3)nc3ncnn23)cc1OC` [Compound 50, 2-(3,4-Dimethoxyphenyl)-N-(5-phenyl-[1,2,4]triazolo[1,5-a]pyrimidin-7-yl)acetamide] yielded a melting point of 202 to 204 °C. Also, in data set [1], the MIC90 is 10 ± 1.1 µM (≈ 3.89 µg/mL). In data set [2], the “Selectivity index (SI) = IC50/MIC90” value was over 10 and the IC50 was over 100 µM.

`c1ccc(CCNc2cc(-c3ccccn3)nc3ncnn23)cc1` [Compound 51, N-Phenethyl-5-(pyridin-2-yl)-[1,2,4]triazolo[1,5-a]pyrimidin-7-amine] came in with a melting point of 214 to 215 °C. The MIC90 in data set [1] was 2.4 ± 1.3 µM (≈ 0.759 µg/mL). Moreover, in data set [2], the “Selectivity index (SI) = IC50/MIC90” value is recorded as over 46 and the IC50 was over 100 µM.

`c1ccc(CCNc2cc(-c3ccccn3)nc3ncnn23)nc1` [Compound 52, 5-(Pyridin-2-yl)-N-(2-(pyridin-2-yl)ethyl)-[1,2,4]triazolo[1,5-a]pyrimidin-7-amine] came in with a melting point of 156 to 157 °C. The MIC90 in data set [1] was over 20 µM. Besides, the IC50 in data set [2] was over 100 µM.

Consider `c1ccc(-c2cc(NCCc3cccnc3)n3ncnc3n2)nc1` [Compound 53, 5-(Pyridin-2-yl)-N-(2-(pyridin-3-yl)ethyl)-[1,2,4]triazolo[1,5-a]pyrimidin-7-amine], for which the melting point fell in the range of 212 to 213 °C. Also, the MIC90 in data set [1] is over 20 µM. Also, the IC50 in data set [2] was over 100 µM.

Take `c1ccc(-c2cc(NCCc3ccncc3)n3ncnc3n2)nc1` [Compound 54, 5-(Pyridin-2-yl)-N-(2-(pyridin-4-yl)ethyl)-[1,2,4]triazolo[1,5-a]pyrimidin-7-amine]: the melting point lay within 201 to 202 °C. Besides, the MIC90 in data set [1] is over 20 µM. Besides, the IC50 in data set [2] was over 100 µM.

On to `Cc1ccc(CCNc2cc(-c3ccccn3)nc3ncnn23)cc1` [Compound 55, N-(4-Methylphenethyl)-5-(pyridin-2-yl)-[1,2,4]triazolo[1,5-a]pyrimidin-7-amine], for which the melting point lay in the range of 194 to 196 °C. In addition, in data set [1], the MIC90 stood at 0.52 ± 0.1 µM (≈ 0.172 µg/mL). In data set [2], the “Selectivity index (SI) = IC50/MIC90” value is listed as over 196 and the IC50 is over 100 µM.

As to `CCc1ccc(CCNc2cc(-c3ccccn3)nc3ncnn23)cc1` [Compound 56, N-(4-Ethylphenethyl)-5-(pyridin-2-yl)-[1,2,4]triazolo[1,5-a]pyrimidin-7-amine], the melting point was 154 to 155 °C. Also, the MIC90 in data set [1] stood at 0.2 ± 0.02 µM (≈ 0.0689 µg/mL). In data set [2], the “Selectivity index (SI) = IC50/MIC90” value is 220 and the IC50 came out at 44 µM.

Molecule `Fc1ccc(CCNc2cc(-c3ccccn3)nc3ncnn23)cc1` [Compound 57, N-(4-Fluorophenethyl)-5-(pyridin-2-yl)-[1,2,4]triazolo[1,5-a]pyrimidin-7-amine] showed a melting point of 190 to 192 °C. Besides, the MIC90 in data set [1] was 4.8 ± 1.3 µM (≈ 1.6 µg/mL). In data set [2], the “Selectivity index (SI) = IC50/MIC90” value was found to be 17 and the IC50 was 81 µM.

In turn, `FC(F)(F)Oc1ccc(CCNc2cc(-c3ccccn3)nc3ncnn23)cc1` [Compound 59, 5-(Pyridin-2-yl)-N-(4-(trifluoromethoxy)phenethyl)-[1,2,4]triazolo[1,5-a]pyrimidin-7-amine] came in with a melting point of 163 to 165 °C. Further, the MIC90 in data set [1] is 1.6 ± 1.1 µM (≈ 0.641 µg/mL). In addition, in data set [2], the “Selectivity index (SI) = IC50/MIC90” value is over 72 and the IC50 was over 100 µM.
